Assay results reported in patent US7531676B2, “Lipids” (Celltech R & D Limited, priority 1999, dated 2009).
Structures can show the parent of a compound that is named as a salt.

How the values were obtained:
[1] = tested on: Chinese Hamster Ovary (CHO) cells; assay: CHO transfection with lipid condensed DNA, beta-galactosidase reporter; type: cell-based; details: for β-galactosidase in cell extract mUnits per mg protein: CHO cells, Lipid:DNA mass ratio 8:1, pEG/acZ plasmid; for β-galactosidase expression in the CHO cells (in words): lipid condensed DNA versus non-condensed DNA control (undetectable)
Experimental: Plasmid DNA (pEG/acZ) was prepared at concentrations of typically 60 or 120 μg/ml in water. Solutions of lipids according to the invention were prepared in water over a range of concentrations (typically 30 to 960 μg/ml). An equal volume of DNA was added dropwise to a tube containing a solution of the lipids whilst vortexing the tube.
Chinese Hamster Ovary (CHO) cells were seeded in to 24 well plates at 100,000 cells per well 24 h before experiment. Cells were washed once in Optimem™ medium prior to transfection. Wash medium was removed and replaced with 0.5 ml of Optimem™ to which the required amount of lipid condensed DNA was added (typically 1 to 5 μg DNA equivalent). Usually three replicate transfection wells were set up per condensed DNA sample tested. Cells were incubated for a further 34 h at 37° C., 5% CO2 before removal of the complex and additon of 1 ml of fresh medium (Iscoves™ medium: modified DMEM plus glutamate, asparagine, adenosine, guanosine, cytidine, uridine, thymidine and 10% dialysed foetal calf serum). Cells were cultured for a further 48-72 hours before harvesting and assay. Levels of Beta galactosidase reporter gene activity were determined using an enzyme assay system from Promega as follows. Cells were washed twice with I ml of phosphate buffered saline and solubilised in 200 ul of 1× cell lysis buffer. 50 ul of cell extract was incubated with the provided buffer and substrate o-nitrophenyl-β-D-galactopyranoside and the optical density measured spectrophoto-metrically. Levels of β-gal expression were quantitated by reference to the standard curve and related to the amount of protein in the extract (measured using the BCA assay kit from Pierce) to give a final value expressed as mU of β-gal per mg of protein.

Plasmid DNA (pEG/acZ) = assay: Agarose gel electrophoresis of lipid/plasmid DNA complexes (DNA retardation/condensation); type: binding
Experimental: Plasmid DNA (pEG/acZ) was prepared at a concentration of 120 μg/ml in water. A lipid according to the invention [for example the hexamine H18 described in the Example above] was prepared in a range of concentrations such that charge ratios of lipid:DNA of 0.25:1, 1:1, 2:1, 4:1, 8:1 would be obtained (based on the assumption that DNA at 120 μg/ml is equivalent to 0.387 mM of negative charge, and the hexamine H18 for example at 10 mg/ml is equivalent to 36.23 mM of positive charge). An equal volume of DNA was added dropwise to a vortexing tube containing the lipid in water. For DNase treatment, DNase I (FPLCpure, Pharmacia) was added at a concentration of 1 unit/1 μg of DNA and tubes were incubated at 37° C. for 10 minutes. To inhibit further action of DNase, EGTA was added to a final concentration of 25 mM. For pronase treatment, protease XIV (Sigma) was added to samples to a final concentration of 150 μg/ml, and samples incubated for 30 min at 37° C. Complexes were disrupted in 0.5% SDS with incubation at 55° C. for 20 min. Serum treatment involved incubating the samples in the presence of 50% foetal calf serum (final concentration) for 30 min at 37° C. EGTA was added to a final concentration of 50 mM in an attempt to prevent subsequent action of serum-associated nucleases. Finally, all samples were analysed by electrophoresis on 0.8% agarose gels.

protease XIV (pronase) = assay: Pronase treatment of lipid/DNA complexes, plasmid integrity by gel; details: protease XIV 150 μg/ml, 30 min at 37° C.
Text: (§1) One of the ultimate goals of current gene therapy research is to develop a delivery system which will remain stable and effective in vivo, since this would remove the need for expensive and time-consuming ex-vivo manipulations. Since intravenous administration offers the possibility of delivery to the largest number of tissue sites, survival of the gene delivery complex in the presence of serum could be an important feature of any effective technology. Many published studies have demonstated the susceptibility of gene delivery complexes to inactivation by serum even at levels as low as 10%. This effect is due, at least in part, to the destabilisation of complexes by a poorly understood mechanism, and this can lead to degradation of the DNA within the complex by serum-associated nucleases. We have therefore formed complexes between the lipids of the invention and plasmid DNA and subjected these to treatment with purified DNase and pronase as well as with 50% foetal calf serum. Integrity of the plasmid DNA was then measured.
(§2) Plasmid DNA (pEG/acZ) was prepared at a concentration of 120 μg/ml in water. […] Finally, all samples were analysed by electrophoresis on 0.8% agarose gels.

DNase I = assay: DNase treatment of lipid/DNA complexes, plasmid integrity by gel; details: charge ratio of at least 2:1; DNase I 1 unit/1 μg DNA, 37° C., 10 minutes
Text: as §1, §2

For `NCCCCNCC(CCCCCCNC(=O)CCCCCCCCCCCCCCCCCCCCCCCNC(=O)[C@H](O)[C@H](O)[C@H](O)[C@H](O)CO)CNCCCCN` (stereo in doubt) [Lipid H3, (trifluoroacetate) salt], the “β-galactosidase in cell extract mUnits per mg protein” value [1] was 11 ± 4 mUnits per mg protein and the “β-galactosidase expression in the CHO cells (in words)” value [1] was “significant β-galactosidase expression”.

For `NCCCNCCCCNCC(CCCCCCNC(=O)CCCCCCCCCCCCCCCCCCCCCCCNC(=O)[C@H](O)[C@@H](O)[C@H](O)[C@H](O)CO)CNCCCCNCCCN` (stereo in doubt) [Lipid H18, (trifluoroacetate) salt], the “mobility of plasmid DNA through gel” value (Plasmid DNA (pEG/acZ); charge ratio of 2:1 (H18:DNA), 0.8% agarose gel) was “no DNA entered the gel”, the “visibility of plasmid DNA by ethidium bromide fluorescence (DNA fully condensed)” value (Plasmid DNA (pEG/acZ); charge ratios higher than 2:1) was “no longer visible” and the “resistance of lipid/DNA condensates to treatment by pronase” value (protease XIV (pronase)) was “resistant”. For the same compound, the “resistance of condensed DNA to treatment by DNase” value (DNase I) was “resistant”, the “β-galactosidase in cell extract mUnits per mg protein” value [1] was 40 ± 9 mUnits per mg protein and the “β-galactosidase expression in the CHO cells (in words)” value [1] was “significant β-galactosidase expression”.
